# Test results published in article PMC8717366, “Synthesis and Pharmacological Characterization of Visabron, a Backbone Cyclic Peptide Dual Antagonist of α4β1 (VLA-4)/α9β1 Integrin for Therapy of Multiple Sclerosis” (JACS Au, 2021).
# Where two headings read alike, the source gives them in different places. Numbered stars: 1 amine (or outer) side, 2 acyl side, 3 side chain; on linkers, the order of the positions; unused ones are H or OH. Bridge positions count the residues as written; N and C are the ends. Square brackets hold non-standard residues; d marks the D form. Peptide text beside a SMILES is read from it. CO = O=C([*:1])[*:2]; Nlys = NCCCCNCC(=O)O
# Key:
# [1] = Pharmacokinetics in rats after single i.v. dose; type: in vivo, Male Wistar rats
# Protocol: Pharmacokinetics of Visabron c (4-4) following iv injection:
# Animals-Male Wistar rats (275−300 g, purchased from Harlan, Israel), were used for the surgical procedure. An indwelling cannula was implanted into the right jugular vein, and exteriotrated at the dorsal neck to enable serial systemic blood sampling. After completion of the surgical procedure, the animals were transferred to cages to recover overnight (12−18 h). The animals had free access to water and food during the recovery period and throughout the entire experiment. All surgical and experimental procedures were approved by the Animal Experimental Ethics Committee of the Hebrew University, Hadassah Medical School, Jerusalem. […]
# PK Study-A single dose of Visabron c(4-4) in sterile water (300 μL of a 0.514 mg/mL solution, which was equivalent to a final dose of 0.514 mg/kg) was administered i.v. via the indwelling jugular cannula to each rat. Following dose administration, blood samples were taken at pre -dose, 10, 15, 30, 60, 90 and 130-min from the onset of the drug administration (time zero) via the right jugular vein. Approximately […]
# 350 μL of whole blood was removed, and placed in sodium-heparin containing tubes, and immediately placed in wet ice. Blood was centrifuged at 5322 g for 10 min and a 150 μL aliquot of plasma was transferred to fresh centrifuge tubes and stored at −20 °C pending analysis. PK analysis was performed using standard non-compartmental analysis models in Phoenix WinNonlin®.
# Bioanalytical Method for the Detection of Vis-c(4-4) in Rat Plasma: Plasma samples (150 μL) were spiked with metoprolol (20 μL, 10 μg/mL) as an internal standard. 200 μL of ACN was added to each sample and vortex-mixed for 1 min. The samples were then centrifuged (14635 g, 10 min), and the supernatant was transferred to fresh glass tubes and evaporated to dryness (Vacuum Evaporation System, Labconco, Kansas City, MO, USA). The glass tubes were reconstituted in 80 μL of mobile phase and centrifuged a second time (14635 g, 10 min). The amount of the compounds was determined using an HPLC−MS Waters 2695 Separation Module, equipped with a Micromass ZQ detector. The resulting solution was injected (10 μL) into the HPLC sy stem. The system was conditioned as follows :
# Xterra MS C18, 3.5 µm, 100A, 100 x 2.1 mm column (Waters), an isocratic mobile phase of ACN : water supplemented with 0.1% formic acid (15:85, v/v) and a flow rate of 0.2 mL/ min at 35 °C was used. The limit of quantification the peptide was 25 ng/mL. Calibration curve was prepared by spiking the standard working stock solution with 15 μL of the different concentrations, 20 μL IS (10 μg/ mL) and 135 μl blank rat plasma in a centrifuge tube on the analysis day . […]
# range of 25 ng/Ml to 2.5 μg/mL.
# Blood cell counting and biochemistry analyzes : Male C57BL/6 mice were injected intravenously with 0.2 ml of peptide in a dose of 500 mg/kg. No immediate toxicity symptoms were measured a nd thereafter, acute tolerability was observed. Since the hematopoietic system is one of the most sensitive parameters to assess the toxicity of drugs in humans and animals, tail vein blood samples were taken from control (n=3) and 250 mg/kg Visabron c (4-4) injected mice (n=5), after 24 hours from injection and submitted for hematocrit cell counting and biochemical analysis. […]
# blood count and electrolytes of special importance are normal liver (ALP, alkaline phosphatase; ALT, alanine transaminase and AST, aspartate transaminase) functions and normal kidney (creatinine and blood urea nitrogen) functions, indicating sufficient organ integrity at the end of the experimental period. The data obtained was similar to hematological parameters reported for this mice strain5, and clearly indicates lack of differences on kidney and liver parameters between the two mice groups.
# Visabron c (4-4) safety by in vitro evaluation using PhosphoSens - CSox based kinase assays:
# A powerful method was used to measure the activity of recombinant protein kinases using a […]
# [2] = 48 h
# Protocol: Eight-week-old C57Bl/6 mice were obtained from Envigo animal breeding center in Israel. All experiments were approved by the Institutional Animal Care and Use Committee, and performed according to OECD guidelines for chemical testing. One group of five mice (7683–87) received visabron c (4–4) by iv injection in a volume of 0.2 mL/mouse at a dose of 10 mg/mice (about 500 mg/kg), and another group of five mice (7688–92) received per-os visabron c (4–4) at a dose of 10 mg/mice, dissolved in a nanoemulsifying drug delivery system,[48] in a bolus of 0.4 mL/mouse. After 48 h of exposure, the animals were sacrificed and the organs were harvested for the detection of possible toxicological lesions in the framework of a safety assessment. Then the organs were fixed in 4% formaldehyde, trimmed in a standard position per organ, and transferred to embedding cassettes. Paraffin blocks were sectioned at approximately 3–5 μm thickness. The sections were applied on a glass slide and stained with hematoxylin and eosin (H&E). Pictures were taken on a microscope (Olympus BX60) at magnifications of X4 and X10 using the microscope’s camera (Olympus DP73). An experienced pathologist (Dr. Loeb Emanuel) examined the slides. Microscopically findings were classified with standard pathological nomenclature and the severity of the findings was graded on a scale of minimal, mild, or severe. Grades of severity for microscopic findings were subjective; minimal was the least extent discernible and severe was the greatest extent possible.
# Table S11. Histological pathological grades of organs slides obtained from mice treated for 48 h with 500 mg/kg Visabron c(4-4)*
# Number** Heart Lung Kidney Intestine Large Stomach Spleen Liver Brain […]
# *Grade 0: no signs of pathological changes; Grade 1: mild pathological changes; Grade 2: moderate pathological changes; Grade 3: severe pathological changes.
# [3] = 500 mg/kg i.v., all five mice 7683-7687
# [4] = 500 mg/kg per os, all five mice 7688-7692
compound,measurement,setting,value
CSCC[C@@H]1NC(=O)[C@H]([C@@H](C)O)NC(=O)CN(C(=O)[C@@H](N)CCCCN)CCCCNC(=O)NCCCCN(CC(=O)N[C@@H](CC(C)C)C(N)=O)C(=O)[C@H](CC(=O)O)NC(=O)[C@H](CC(C)C)NC1=O [visabron c (4–4)] (H-K[Nlys]TMLD[Nlys]L-NH2; linker 2-7 via CO),half-life,"[1]; rat, in vivo, iv, 0.515 mg/kg, single i.v. dose 0.515 mg/kg, n = 4",24 min
same,AUC,"[1]; rat, in vivo, iv, plasma, single i.v. dose 0.515 mg/kg, n = 4",777 ng·h/mL
same,Vd,"[1]; rat, in vivo, iv, read-out: volume of distribution",0.39 L/kg
same,Vd,"[1]; rat, in vivo, iv, single i.v. dose 0.515 mg/kg, n = 4, Table 3, read-out: Vd",0.381 ± 0.029 L/kg
same,clearance,"[1]; rat, in vivo, iv, single i.v. dose 0.515 mg/kg, n = 4, noncompartmental analysis",11.1 ± 0.5 mL/min/kg
same,t1/2,"[1]; single i.v. dose 0.515 mg/kg, n = 4, 0.515 mg/kg",23.8 ± 1.6 min
same,"Histological pathological grade, Brain",[2]; [3],0
same,"Histological pathological grade, Heart",[2]; [3],0
same,"Histological pathological grade, Kidney",[2]; [3],0
same,"Histological pathological grade, Liver",[2]; [3],0
same,"Histological pathological grade, Lung",[2]; [3],0
same,"Histological pathological grade, Small Intestine",[2]; [3],0
same,"Histological pathological grade, Spleen",[2]; [3],0
same,"Histological pathological grade, Stomach",[2]; [3],0
same,"Histological pathological grade, Large Intestine","[2]; 500 mg/kg i.v., mouse 7683",0
same,"Histological pathological grade, Large Intestine","[2]; 500 mg/kg i.v., mouse 7684, finding considered accidental, most probably not related to the tested compound",3
same,"Histological pathological grade, Large Intestine","[2]; 500 mg/kg i.v., mouse 7685, finding considered accidental, most probably not related to the tested compound",3
same,"Histological pathological grade, Large Intestine","[2]; 500 mg/kg i.v., mouse 7686",0
same,"Histological pathological grade, Large Intestine","[2]; 500 mg/kg i.v., mouse 7687",0
same,"Histological pathological grade, Brain",[2]; [4],0
same,"Histological pathological grade, Heart",[2]; [4],0
same,"Histological pathological grade, Kidney",[2]; [4],0
same,"Histological pathological grade, Liver",[2]; [4],0
same,"Histological pathological grade, Lung",[2]; [4],0
same,"Histological pathological grade, Small Intestine",[2]; [4],0
same,"Histological pathological grade, Spleen",[2]; [4],0
same,"Histological pathological grade, Stomach",[2]; [4],0
same,"Histological pathological grade, Large Intestine","[2]; 500 mg/kg per os, mouse 7688",0
same,"Histological pathological grade, Large Intestine","[2]; 500 mg/kg per os, mouse 7689",0
same,"Histological pathological grade, Large Intestine","[2]; 500 mg/kg per os, mouse 7690, finding considered accidental, most probably not related to the tested compound",2
same,"Histological pathological grade, Large Intestine","[2]; 500 mg/kg per os, mouse 7691",0
same,"Histological pathological grade, Large Intestine","[2]; 500 mg/kg per os, mouse 7692",0
same,Short-term adverse pathological effects on major organs,"[2]; i.v. or per o.s., 500 mg/kg",without short-term adverse pathological effects
